We go through 8 substances from patent US8598314B2 (priority 2007, dated 2013).

*1 amine or outer side, *2 acyl side, *3 side chain or, on linkers, in order; H or OH if unused. Where no end group is shown, it is not given here. Side-chain parts run from the residue outwards. The star is where a group is joined. γGlu = O=C(O)[C@H](CCC(=O)[*:2])N[*:1]; Pyrrolidine(2S-CN) = N#C[C@@H]1CCCN1*; AEEA = NCCOCCOCC(=O)O

This experiment relates to NIH/Swiss mice. Description: Oral glucose tolerance test (OGTT), glucose lowering. In kind it is in vivo. The conditions noted are these: 30 nM/kg, blood glucose. The procedure: . Test compounds were injected IP (t=0 min) immediately following baseline measurements of 2 hour fasted NIH/Swiss mice. Blood samples were taken at 60, 120, and 180 minutes after injection. In some assays, samples were also taken at 240 minutes after the injection. Blood glucose was measured with a One-Touch® Ultra® glucose meter (LifeScan, Inc., Milpitas, Calif.). […].
The tests were performed as described in Example 5.
As for “[^16Lys (N-ε-(Aun-Aun-(γ-L-Glu-2-(S)-cyano pyrrolidyl)))] GIP(1-30)-exendin(31-39)”, the “OGTT (30 nM/kg) % maximal decrease” value is listed as −3%.

As to “GIP(1-30)-exendin-4(31-39)-Ado-Ado-Lys-N-ε-(2-(S)-cyano pyrrolidyl)”, the “OGTT (30 nM/kg) % maximal decrease” value was −22%.

For the substance “GIP(1-30)-Ado-Lys-N-ε-(2-(S)-cyano pyrrolidyl) (YAEGTFISDYSIAMDKIHQQDFVNWLLAQK)”, the “OGTT (30 nM/kg) % maximal decrease” value is listed as −18%. Under “GIP(1-30)-Ado-Ado-Lys-N-ε-(2-(S)-cyano pyrrolidyl)” stands −17%; under “[^14Leu] GIP(1-30)-Ado-Lys-N-ε-(2-(S)-cyano pyrrolidyl) (YAEGTFISDYSIALDKIHQQDFVNWLLAQK)”, −9%; under “[Lys^30 N-ε-(Ado-(γ-L-Glu-2-(S)-cyano pyrrolidyl))]GIP(1-30) (YAEGTFISDYSIAMDKIHQQDFVNWLLAQK([AEEA-γGlu-Pyrrolidine(2S-CN)]))”, −10%.

For the substance “GIP(1-30)-exendin-4(31-39)-Ado-Lys-N-ε-(2-(S)-cyano pyrrolidyl)”, the “OGTT (30 nM/kg) % maximal decrease” value was −18%. Take “Lys^30 N-ε-(Ado-(γ-L-Glu-2-(S)-cyano pyrrolidyl)) GIP(1-30)-exendin-4(31-39)”: the “OGTT (30 nM/kg) % maximal decrease” value is −11%.
